Patent US20250009896A1, “SUPR[…] BASED VIRAL […] CAPTURE FOR PREVENTION AND THERAPY OF VIRAL INFECTION” (The Johns Hopkins University, priority 2023, published 2025)
Residues, ends and D or L forms follow the SMILES beside them. *: point of attachment. Lauroyl = CCCCCCCCCCCC(=O)*

Key:
VSVG PsV = format: cell-based, vesicular stomatitis virus
SARS-CoV PsV = format: cell-based
SARS-CoV-2 PsV = format: cell-based; settings: 0.5 nM ACE2 dose
[1] = Critical micelle concentration by Nile Red assay; format: physicochemical; settings: MilliQ water pH=7.4, Nile Red assay
Method: Using a Nile Red assay, the CMC of each PA monomer (Filler and Ligand) and their co-assembly (1:1 molar ratio) was determined. Nile Red dye intensely fluoresces within hydrophobic environments but is strongly quenched and red-shifted in aqueous environments. Thus, when mixed with PAs at a concentration exceeding the CMC, Nile Red will embed within the hydrophobic core and emit a strong fluorescence signal. A 500 μM stock solution of Nile Red was prepared in acetone, and 10 μL of the stock was added to microcentrifuge tubes. Acetone was evaporated off in the dark. Solutions of the samples (500 μL, water) were added to the tubes at varied concentrations and were aged for 2 days in the dark at room temperature. Samples were added to a quartz micro fluorometer cell (0.7 mL, 10 mm pathlength, Starna Cells, Atascadero, CA), and at an excitation wavelength of 550 nm, five parallel emission spectra were recorded at a wavelength range of 580 to 720 nm on a Duetta UV-Vis-NIR spectrofluorometer (HORIBA Scientific). The emission intensity ratio for each run at 635 nm (emission maximum of Nile Red in a hydrophobic environment) to 660 nm (emission maximum of Nile Red in a hydrophilic environment) was plotted against tested concentrations to obtain a transition curve from which CMC was determined.

[2] = molecular target: Recombinant human angiotensin-converting enzyme 2 (ACE2) (Homo sapiens, UniProt Q9BYF1); experiment: ACE2 activity assay with fluorogenic peptide substrate Mca-YVADAPK(Dnp)-OH; settings: 50 nM ACE2; 1 mM Filler or 50 μM Ligand
ACE2 [3] = molecular target: T1, ACE2 (Homo sapiens, UniProt Q9BYF1); settings: ACE2 inhibitor; cited from earlier work
ACE2 [4] = molecular target: T1, ACE2; settings: cited from earlier work

T1 sequence (Q9BYF1 18-805): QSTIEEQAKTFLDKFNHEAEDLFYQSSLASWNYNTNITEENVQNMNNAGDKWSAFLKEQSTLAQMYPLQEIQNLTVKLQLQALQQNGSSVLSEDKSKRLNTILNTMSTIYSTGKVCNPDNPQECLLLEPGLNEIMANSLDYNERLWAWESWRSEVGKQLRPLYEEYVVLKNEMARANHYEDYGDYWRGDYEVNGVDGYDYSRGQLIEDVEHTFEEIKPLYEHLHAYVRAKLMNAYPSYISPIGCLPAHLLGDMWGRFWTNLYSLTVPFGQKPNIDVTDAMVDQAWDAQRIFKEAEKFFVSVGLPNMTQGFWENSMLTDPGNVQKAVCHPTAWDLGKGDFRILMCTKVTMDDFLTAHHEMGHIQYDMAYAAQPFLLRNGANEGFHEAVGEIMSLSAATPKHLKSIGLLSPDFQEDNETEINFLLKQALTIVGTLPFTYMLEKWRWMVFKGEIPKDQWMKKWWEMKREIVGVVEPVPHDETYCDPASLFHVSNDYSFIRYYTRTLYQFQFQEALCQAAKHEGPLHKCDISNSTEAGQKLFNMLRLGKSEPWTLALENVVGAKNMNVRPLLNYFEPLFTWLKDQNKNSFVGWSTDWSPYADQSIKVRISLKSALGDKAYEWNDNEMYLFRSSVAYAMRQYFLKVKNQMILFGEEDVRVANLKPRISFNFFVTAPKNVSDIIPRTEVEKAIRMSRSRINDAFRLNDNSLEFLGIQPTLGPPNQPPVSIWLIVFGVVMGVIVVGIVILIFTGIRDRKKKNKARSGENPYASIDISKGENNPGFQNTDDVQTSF
Sequence of Recombinant human angiotensin-converting enzyme 2 (ACE2) (Q9BYF1 18-740): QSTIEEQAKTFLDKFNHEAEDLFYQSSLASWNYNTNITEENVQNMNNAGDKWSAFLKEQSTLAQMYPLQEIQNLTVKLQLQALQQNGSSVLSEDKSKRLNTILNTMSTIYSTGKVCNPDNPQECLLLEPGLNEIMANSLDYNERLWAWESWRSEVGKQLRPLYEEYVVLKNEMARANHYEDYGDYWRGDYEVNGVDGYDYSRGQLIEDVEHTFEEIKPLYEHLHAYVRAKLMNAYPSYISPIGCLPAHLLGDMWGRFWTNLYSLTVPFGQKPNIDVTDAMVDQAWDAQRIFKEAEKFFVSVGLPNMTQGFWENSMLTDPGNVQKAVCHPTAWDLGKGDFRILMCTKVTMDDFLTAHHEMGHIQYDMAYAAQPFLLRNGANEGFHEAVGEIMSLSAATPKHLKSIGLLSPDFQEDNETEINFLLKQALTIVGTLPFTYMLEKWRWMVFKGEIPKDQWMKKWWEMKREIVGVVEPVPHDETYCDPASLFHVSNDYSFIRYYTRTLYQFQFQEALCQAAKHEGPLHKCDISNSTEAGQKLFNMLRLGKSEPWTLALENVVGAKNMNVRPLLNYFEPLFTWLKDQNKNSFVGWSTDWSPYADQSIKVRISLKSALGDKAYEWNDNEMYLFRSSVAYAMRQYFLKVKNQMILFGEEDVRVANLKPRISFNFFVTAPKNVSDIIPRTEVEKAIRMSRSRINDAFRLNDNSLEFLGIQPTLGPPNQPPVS

ACE2: Recombinant human angiotensin-converting enzyme 2 (ACE2) protein (carrier-free), R&D Systems
VSVG PsV infection inhibition (dose-dependent strong inhibition trend) (VSVG PsV): not observed | SARS-CoV PsV infection inhibition (SARS-CoV PsV): strongly inhibited | incubation time at which inhibition becomes identical to / indistinguishable from empty filaments (SARS-CoV-2 PsV): ≤ 6 h

CCCCCCCCCCCC(=O)N[C@H](C(=O)N[C@H](C(=O)N[C@H](C(=O)NCC(=O)N[C@@H](CCC(=O)O)C(=O)N[C@@H](CCC(=O)O)C(N)=O)C(C)C)C(C)C)C(C)C [Filler] (Lauroyl-VVVGEE-NH2)
critical micelle concentration (CMC) [1]: around 2.9 μM | impact on ACE2 activity / initial velocity [2]: slight impact on ACE2 activity

non-cleavable peptidic ACE2 inhibitor GDYSHCSPLRYYPWWKCTYPDPEGGG (SEQ ID NO: 5/16) [DX600]
Ki (ACE2 [3]): 2.8 nM | Kd (ACE2 [4]): 10.1 nM
